Data reported in ChEMBL document CHEMBL4196117, “PK/PD Disconnect Observed with a Reversible Endothelial Lipase Inhibitor” (ACS Med Chem Lett, 2018).

What was measured:
Endothelial lipase [1] = molecular target: T1, Endothelial lipase (Homo sapiens, UniProt Q9Y5X9); assay: Inhibition of endothelial lipase in human HT1080 cells using PED-A1 containing DMPG vesicles as substrate pretreated for 20 mins followed by substrate addition and measured every 20 secs for 10 mins by fluorescence assay; assay type: cell-based
T1 sequence (Q9Y5X9 whole entry): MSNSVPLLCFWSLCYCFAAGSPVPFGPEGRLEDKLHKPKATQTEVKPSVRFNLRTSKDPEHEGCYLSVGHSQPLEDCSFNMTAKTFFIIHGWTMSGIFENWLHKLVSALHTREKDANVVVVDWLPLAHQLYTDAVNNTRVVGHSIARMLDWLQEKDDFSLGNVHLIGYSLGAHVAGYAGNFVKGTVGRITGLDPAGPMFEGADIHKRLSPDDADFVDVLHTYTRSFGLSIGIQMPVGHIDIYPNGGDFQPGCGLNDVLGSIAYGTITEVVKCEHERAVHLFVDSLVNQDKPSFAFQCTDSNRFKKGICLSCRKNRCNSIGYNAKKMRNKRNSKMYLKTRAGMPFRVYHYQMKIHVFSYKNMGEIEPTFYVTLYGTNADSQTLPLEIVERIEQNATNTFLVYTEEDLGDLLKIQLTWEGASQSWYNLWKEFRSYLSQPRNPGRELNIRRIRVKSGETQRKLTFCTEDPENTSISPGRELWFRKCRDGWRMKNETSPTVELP

[2] = Cmax in CD1 mouse at 1 mg/kg, iv administered as bolus dose; assay type: ADME, organism-based; design: dose 1 mg/kg, route intravenous; details: in vivo
[3] = Total AUC in CD1 mouse at 1 mg/kg, iv administered as bolus dose; assay type: ADME, organism-based; design: dose 1 mg/kg, time AUCmax, route intravenous; details: in vivo
[4] = Half life in CD1 mouse at 1 mg/kg, iv administered as bolus dose; assay type: ADME, organism-based; details: in vivo
[5] = Cmax in CD1 mouse at 1 mg/kg, po administered as bolus dose; assay type: ADME, organism-based; design: dose 1 mg/kg, route oral; details: in vivo
[6] = Total AUC in CD1 mouse at 1 mg/kg, po administered as bolus dose; assay type: ADME, organism-based; design: dose 1 mg/kg, route oral, time AUCmax; details: in vivo
[7] = Half life in CD1 mouse at 1 mg/kg, po administered as bolus dose; assay type: ADME, organism-based; details: in vivo
[8] = Oral bioavailability in CD1 mouse at 1 mg/kg administered as bolus dose; assay type: ADME, organism-based; details: in vivo
Endothelial lipase [9] = molecular target: T1, Endothelial lipase; assay: Inhibition of endothelial lipase in human HT1080 cells using HDL as substrate pretreated for 10 mins followed by substrate addition and measured after 30 mins by LC/MS/MS analysis; assay type: cell-based
[10] = Tmax in CD1 mouse at 1 mg/kg, iv administered as bolus dose; assay type: ADME, organism-based; details: in vivo
[11] = Tmax in CD1 mouse at 1 mg/kg, po administered as bolus dose; assay type: ADME, organism-based; details: in vivo
[12] = Drug level in CD1 mouse at 1 mg/kg, po administered as bolus dose measured after 24 hrs; assay type: ADME, organism-based; details: in vivo, read-out: Drug uptake
Mus musculus [13] = assay: Free drug level in CD1 mouse at 1 mg/kg, po administered as bolus dose measured after 24 hrs; assay type: ADME, organism-based; details: in vivo
[14] = Protein binding in CD1 mouse plasma assessed as unbound fraction at 1 mg/kg, po administered as bolus dose; assay type: ADME, organism-based
Mus musculus [15] = assay: Ratio of total AUC in CD1 mouse at 10 mg/kg, po administered as bolus dose to total AUC in CD1 mouse at 1 mg/kg, po administered as bolus dose; assay type: ADME, organism-based; details: in vivo
Mus musculus [16] = assay: Ratio of total AUC in CD1 mouse at 50 mg/kg, po administered as bolus dose to total AUC in CD1 mouse at 1 mg/kg, po administered as bolus dose; assay type: ADME, organism-based; details: in vivo
[17] = Protein binding in CD1 mouse plasma at 1 mg/kg, po administered as bolus dose; assay type: ADME, organism-based; details: read-out: PPB (converted)
[18] = Cmax in C57BL/6J mouse at 50 mg/kg, po administered once daily for 5 days measured 6 hrs post last dose; assay type: ADME, organism-based; design: dose 50 mg/kg, route oral; details: in vivo
[19] = Cmin in C57BL/6J mouse at 50 mg/kg, po administered once daily for 5 days measured 24 hrs post last dose; assay type: ADME, organism-based; details: in vivo, read-out: Cmin
Mus musculus [20] = assay: fCmax in C57BL/6J mouse at 50 mg/kg, po administered once daily for 5 days measured 6 hrs post last dose; assay type: ADME, organism-based; details: in vivo
Mus musculus [21] = assay: fCmin in C57BL/6J mouse at 50 mg/kg, po administered once daily for 5 days measured 24 hrs post last dose; assay type: ADME, organism-based; details: in vivo
[22] = Ratio of fCmax in C57BL/6J mouse to IC50 for recombinant mouse endothelial lipase expressed in HEK293F cells using HDL as substrate; assay type: ADME, cell-based
[23] = Ratio of fCmin in C57BL/6J mouse to IC50 for recombinant mouse endothelial lipase expressed in HEK293F cells using HDL as substrate; assay type: ADME, cell-based
[24] = Protein binding in hamster plasma at 50 mg/kg, po qd for 7 days measured 6 hrs post dose on day 5; assay type: ADME, organism-based; details: cricetinae, read-out: PPB (converted)
Hamster = assay: fCmax in hamster at 50 mg/kg, po qd for 7 days measured 6 hrs post dose on day 5; assay type: ADME, organism-based; details: cricetinae, in vivo
[25] = Ratio of fCmax in hamster to IC50 for recombinant mouse endothelial lipase expressed in HEK293F cells using HDL as substrate; assay type: ADME, cell-based

## CCN1CC(C(=O)NC(C)CCc2ccc(Cl)c(Cl)c2)=C(O)C1=O (stereo in doubt; 7c)
Endothelial lipase [1]
  IC50: 0.148 µM
[2]
  Cmax: 39 µM
[3]
  AUC: 304 µM·h
[4]
  half-life: 13 h
[5]
  Cmax: 15 µM
[6]
  AUC: 292 µM·h
[7]
  half-life: 13 h
[8]
  bioavailability: 96%
Endothelial lipase [9]
  IC50: 0.218 µM
[10]
  Tmax: 3 min
[11]
  Tmax: 0.5 h
[12]
  concentration at 24 h: 4.31 µM
Mus musculus [13]
  Drug uptake(free): 99 nM
[14]
  fraction unbound: 0.023
Mus musculus [15]
  Ratio AUC: 7.5
Mus musculus [16]
  Ratio AUC: 18
[17]
  fraction unbound: 0.023
[18]
  Cmax: 238 µM
[19]
  concentration at 24 h: 57 µM
Mus musculus [20]
  fCmax: 5.5 µM
Mus musculus [21]
  fCmin: 1.3 µM
[22]
  Ratio: 55
[23]
  Ratio: 13
[24]
  fraction unbound at 6 h: 0.016
Hamster
  fCmax: 5.1 µM
[25]
  Ratio: 51
